According to ChEMBL document CHEMBL4024779, “Novel Terminal Bipheny-Based Diapophytoene Desaturases (CrtN) Inhibitors as Anti-MRSA/VISR/LRSA Agents with Reduced hERG Activity” (J Med Chem, 2018):
≈ marks a conversion by molar mass, not a printed value.

system: HepG2; experiment: Cytotoxicity against human HepG2 cells after 43 hrs by Alamar blue dye-based fluorescence assay; assay type: cell-based; settings: HepG2, 43 h

SMILES	IC50
C[C@@H]1[C@H](O)[C@@H](C)/C=C/C=C/C=C/C=C/C=C/C=C/C=C/[C@H](O[C@@H]2O[C@H](C)[C@@H](O)[C@H](N)[C@@H]2O)C[C@@H]2O[C@](O)(C[C@@H](O)C[C@@H](O)[C@H](O)CC[C@@H](O)C[C@@H](O)CC(=O)O[C@H]1C)C[C@H](O)[C@H]2C(=O)O [AMPHOTERICIN B]	3.1 µM
CN(C/C=C/c1ccc(Br)cc1)Cc1coc2ccccc12	33 µM
CN(C/C=C/c1ccc(Cl)cc1)Cc1coc2ccccc12	60.2 µM

system: Nannizzia gypsea; experiment: In vitro antifungal activity against Microsporum gypseum after 7 days by serial dilution method; assay type: functional; settings: 168 h

SMILES	MIC80
OC(Cn1cncn1)(Cn1cncn1)c1ccc(F)cc1F [FLUCONAZOLE]	8 µg/mL (≈ 26.1 µM)
C[C@@H](c1ncncc1F)[C@](O)(Cn1cncn1)c1ccc(F)cc1F [VORICONAZOLE]	0.25 µg/mL (≈ 0.716 µM)
CC(=O)N1CCN(c2ccc(OCC3COC(Cn4ccnc4)(c4ccc(Cl)cc4Cl)O3)cc2)CC1 (stereo not drawn) [KETOCONAZOLE]	2 µg/mL (≈ 3.76 µM)

system: not listed separately; experiment: Cytotoxicity against HEK293 cells after 43 hrs by Alamar blue dye-based fluorescence assay; assay type: cell-based; settings: human

SMILES	CC50 at 43 h
C[C@@H]1[C@H](O)[C@@H](C)/C=C/C=C/C=C/C=C/C=C/C=C/C=C/[C@H](O[C@@H]2O[C@H](C)[C@@H](O)[C@H](N)[C@@H]2O)C[C@@H]2O[C@](O)(C[C@@H](O)C[C@@H](O)[C@H](O)CC[C@@H](O)C[C@@H](O)CC(=O)O[C@H]1C)C[C@H](O)[C@H]2C(=O)O [AMPHOTERICIN B]	4.2 µM
CN(C/C=C/c1ccc(Br)cc1)Cc1coc2ccccc12	41.9 µM
CN(C/C=C/c1ccc(Cl)cc1)Cc1coc2ccccc12	42.1 µM

system: Trichophyton verrucosum; experiment: In vitro antifungal activity against Trichophyton verrucosum after 7 days by serial dilution method; assay type: functional; settings: 168 h

SMILES	MIC80
OC(Cn1cncn1)(Cn1cncn1)c1ccc(F)cc1F [FLUCONAZOLE]	2 µg/mL (≈ 6.53 µM)
C[C@@H](c1ncncc1F)[C@](O)(Cn1cncn1)c1ccc(F)cc1F [VORICONAZOLE]	0.0312 µg/mL (≈ 0.0895 µM)
CC(=O)N1CCN(c2ccc(OCC3COC(Cn4ccnc4)(c4ccc(Cl)cc4Cl)O3)cc2)CC1 (stereo not drawn) [KETOCONAZOLE]	0.0625 µg/mL (≈ 0.118 µM)

target: T1, 4,4'-diapophytoene desaturase (4,4'-diaponeurosporene-forming) (Staphylococcus aureus (strain Newman), UniProt O07855); experiment: Inhibition of CrtN in Staphylococcus aureus Newman assessed as reduction in staphyloxanthin levels after 48 hrs by spectrophotometric method-based pigment inhibition assay; set-up: species or system Staphylococcus aureus subsp. aureus str. Newman; settings: not given
T1 sequence (O07855 whole entry): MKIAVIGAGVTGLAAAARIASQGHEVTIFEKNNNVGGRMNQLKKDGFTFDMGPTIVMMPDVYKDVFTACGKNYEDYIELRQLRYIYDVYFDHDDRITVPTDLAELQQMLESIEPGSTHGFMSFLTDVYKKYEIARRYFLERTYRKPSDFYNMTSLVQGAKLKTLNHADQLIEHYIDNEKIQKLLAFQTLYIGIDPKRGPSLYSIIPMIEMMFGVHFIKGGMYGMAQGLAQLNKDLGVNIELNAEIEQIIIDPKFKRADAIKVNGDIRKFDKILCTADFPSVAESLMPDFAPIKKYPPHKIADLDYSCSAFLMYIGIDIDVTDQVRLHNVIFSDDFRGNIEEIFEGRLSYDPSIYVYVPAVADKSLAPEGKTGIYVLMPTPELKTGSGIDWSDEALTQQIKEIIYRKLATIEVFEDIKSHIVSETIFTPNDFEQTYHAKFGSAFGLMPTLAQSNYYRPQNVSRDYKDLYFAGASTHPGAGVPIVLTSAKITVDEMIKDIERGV

SMILES	IC50
FC(F)(F)c1ccc(/C=C/CNCc2cccc3cc[nH]c23)cc1	> 1000 nM
CN(C/C=C/c1ccc(F)cc1)Cc1coc2ccccc12	74.1 nM
Cc1ccccc1/C=C/CN(C)Cc1cccc2cc[nH]c12	> 1000 nM
COc1ccc(/C=C/CN(C)Cc2cccc3cc[nH]c23)c(F)c1	73.1 nM
COC(=O)c1ccc(/C=C/CN(C)Cc2cccc3cc[nH]c23)cc1	87.8 nM
CN(C/C=C/c1ccc(C(F)F)cc1)Cc1coc2ccccc12	6.4 nM
CN(C/C=C/c1ccc(Br)cc1)Cc1cccc2cc[nH]c12	83.8 nM
CN(C/C=C/c1ccc(C(F)(F)F)cc1)Cc1cc2ccccc2[nH]1	> 1000 nM
CN(C/C=C/c1ccccc1[N+](=O)[O-])Cc1cccc2cc[nH]c12	> 1000 nM
C/C(=C\c1ccc(-c2ccccc2)cc1)CN(C)Cc1coc2ccccc12	> 1000 nM
CN(C/C=C/c1ccc(C#N)cc1)Cc1cccc2cc[nH]c12	785 nM
COc1ccccc1/C=C/CN(C)Cc1cccc2cc[nH]c12	> 1000 nM
COc1cccc(/C=C/CN(C)Cc2cccc3cc[nH]c23)c1	> 1000 nM
CN(C/C=C/c1ccc(C(F)(F)F)cc1)Cc1cccc2[nH]ccc12	89.6 nM
CN(C/C=C/c1cccc2ccccc12)Cc1coc2ccccc12	> 1000 nM
CC(C)N(C/C=C/c1ccc(C(F)(F)F)cc1)Cc1cccc2cc[nH]c12	> 1000 nM
CN(CCCc1ccc(-c2ccccc2)cc1)Cc1coc2ccccc12	> 1000 nM
Cc1cccc(/C=C/CN(C)Cc2cccc3cc[nH]c23)c1	> 1000 nM
CN(C/C=C/c1ccc(C(F)(F)F)cc1)Cc1cccc2cc[nH]c12	50.2 nM
CN(C/C=C/c1ccco1)Cc1cccc2cc[nH]c12	> 1000 nM
COC(=O)c1ccc(/C=C/CN(C)Cc2coc3ccccc23)cc1	9.5 nM
CN(C/C=C/c1ccc2ccccc2c1)Cc1coc2ccccc12	6.4 nM
CN(C/C=C/c1cccc(Cl)c1)Cc1coc2ccccc12	> 1000 nM
CN(C/C=C/c1ccc(C(F)(F)F)cc1)Cc1c[nH]c2ccccc12	> 1000 nM

SMILES	IC50
CN(C/C=C/c1ccc(C(F)(F)F)cc1)Cc1cc2ccccc2o1	73.2 nM
CN(C/C=C/C1CCCCC1)Cc1coc2ccccc12	> 1000 nM
CCN(C/C=C/c1ccc(C(F)(F)F)cc1)Cc1cccc2cc[nH]c12	118 nM
COc1ccccc1/C=C/CN(C)Cc1coc2ccccc12	> 1000 nM
CN(C/C=C/c1ccc(Cl)cc1)Cc1cccc2cc[nH]c12	143 nM
CN(C/C=C/c1ccccc1[N+](=O)[O-])Cc1coc2ccccc12	74.1 nM
CN(C/C=C/c1ccc(F)cc1)Cc1cccc2cc[nH]c12	> 1000 nM
Cc1cccc(/C=C/CN(C)Cc2coc3ccccc23)c1	> 1000 nM
C/C=C/CN(C)Cc1coc2ccccc12	91.3 nM
CN(C/C=C/c1cccc2ccccc12)Cc1cccc2cc[nH]c12	> 1000 nM
CN(C/C=C/c1cccc(C(F)(F)F)c1)Cc1cccc2cc[nH]c12	> 1000 nM
CCN(C/C=C/c1ccc(C(F)(F)F)cc1)CC1=COC2C=CC=CC12 (stereo not drawn)	> 1000 nM
CN(C/C=C/c1ccc(C(C)(C)C)cc1)Cc1cccc2cc[nH]c12	700 nM
CN(C/C=C/C1CCCC1)Cc1coc2ccccc12	397 nM
CN(C/C=C/c1ccc(C(F)(F)F)cc1)Cc1coc2ccccc12	9.8 nM
COc1ccc(/C=C/CN(C)Cc2coc3ccccc23)cc1F	> 1000 nM
CN(C/C=C/c1ccc([N+](=O)[O-])cc1)Cc1coc2ccccc12	9.5 nM
CCOc1ccc(/C=C/CN(C)Cc2coc3ccccc23)cc1	> 1000 nM
CN(C/C=C/c1ccccc1)Cc1coc2ccccc12	> 1000 nM
CN(C/C=C/c1cccc(F)c1)Cc1coc2ccccc12	> 1000 nM
CN(C/C=C/c1ccccc1)Cc1cccc2cc[nH]c12	> 1000 nM
COc1ccc(/C=C/CN(C)Cc2cccc3cc[nH]c23)cc1	167 nM
CN(C/C=C/c1ccc(C(F)(F)F)cc1F)Cc1cccc2cc[nH]c12	48.4 nM
CN(C/C=C/c1ccc(C(C)(C)C)cc1)Cc1coc2ccccc12	> 1000 nM

SMILES	IC50
COc1ccc(/C=C/CN(C)Cc2cccc3cc[nH]c23)cc1F	> 1000 nM
COc1cccc(/C=C/CN(C)Cc2coc3ccccc23)c1	> 1000 nM
CN(C/C=C/c1cccc([N+](=O)[O-])c1)Cc1coc2ccccc12	> 1000 nM
CN(C/C=C/c1ccc(C(F)(F)F)cc1)Cc1ccc2cc[nH]c2c1	64.3 nM
CN(C/C=C/c1ccccc1Cl)Cc1coc2ccccc12	360 nM
CN(C/C=C/c1ccc([N+](=O)[O-])cc1)Cc1cccc2cc[nH]c12	> 1000 nM
Cc1ccc(/C=C/CN(C)Cc2coc3ccccc23)cc1	9.9 nM
CN(CC#Cc1ccc(-c2ccccc2)cc1)Cc1coc2ccccc12	> 1000 nM
CN(C/C=C/c1cccc([N+](=O)[O-])c1)Cc1cccc2cc[nH]c12	> 1000 nM
CN(C/C=C/C1CCCC1)Cc1cccc2cc[nH]c12	> 1000 nM
CN(C/C=C/c1ccccc1C(F)(F)F)Cc1cccc2cc[nH]c12	> 1000 nM
CN(C/C=C/c1ccc(Cl)cc1Cl)Cc1coc2ccccc12	6.2 nM
CN(C/C=C/C1CCCCC1)Cc1cccc2cc[nH]c12	> 1000 nM
CN(CC/C=C/c1ccc(-c2ccccc2)cc1)Cc1coc2ccccc12	> 1000 nM
CN(C/C=C/c1ccc(C(F)(F)F)cc1)Cc1cc2ccccc2s1	102 nM
COc1ccc(/C=C/CN(C)Cc2coc3ccccc23)c(F)c1	> 1000 nM
CN(C/C=C/c1ccco1)Cc1coc2ccccc12	> 1000 nM
CCOc1ccc(/C=C/CN(C)Cc2cccc3cc[nH]c23)cc1	64.8 nM
CN(C/C=C/c1ccc(C(F)(F)F)c(F)c1)Cc1coc2ccccc12	> 1000 nM
CN(C/C=C/c1ccccc1C(F)(F)F)Cc1coc2ccccc12	> 1000 nM
CN(C/C=C/C=C/c1ccc(-c2ccccc2)cc1)Cc1coc2ccccc12	> 1000 nM
CC(C)N(C/C=C/c1ccc(C(F)(F)F)cc1)CC1=COC2C=CC=CC12 (stereo not drawn)	> 1000 nM
CN(C/C=C/c1ccccc1F)Cc1coc2ccccc12	> 1000 nM
CN(C/C=C/c1cccc(C(F)(F)F)c1)Cc1coc2ccccc12	> 1000 nM

SMILES	IC50
CN(C/C=C/c1ccc(C#N)cc1)Cc1coc2ccccc12	80.1 nM
FC(F)(F)c1ccc(/C=C/CNCC2=COC3C=CC=CC23)cc1 (stereo not drawn)	> 1000 nM
CN(C/C=C/c1ccc(C(F)(F)F)cc1)Cc1csc2ccccc12	> 1000 nM
CN(CC#Cc1ccc(-c2ccccc2)cc1)Cc1cccc2cc[nH]c12	102 nM
Cc1ccccc1/C=C/CN(C)Cc1coc2ccccc12	86.4 nM
CN(C/C=C/c1ccc(Br)cc1)Cc1coc2ccccc12	2.5 nM
C/C(=C\c1ccc(-c2ccccc2)cc1)CN(C)Cc1cccc2cc[nH]c12	> 1000 nM
CN(C/C=C/c1ccc(C(F)(F)F)cc1)Cc1ccc2[nH]ccc2c1	62.8 nM
CN(C/C=C/c1ccc(Cl)cc1)Cc1coc2ccccc12	4.9 nM
CN(C/C=C/c1ccc(C(F)F)cc1)Cc1cccc2cc[nH]c12	43.5 nM
CN(C/C=C/c1ccc(C(F)(F)F)cc1F)Cc1coc2ccccc12	9.2 nM
CN(C/C=C/c1cccc(F)c1)Cc1cccc2cc[nH]c12	> 1000 nM
CN(C/C=C/c1cccs1)Cc1cccc2cc[nH]c12	> 1000 nM
CN(C/C=C/c1ccc2ccccc2c1)Cc1cccc2cc[nH]c12	132 nM
CN(C/C=C/c1ccccc1Cl)Cc1cccc2cc[nH]c12	> 1000 nM
CN(C/C=C/c1cccs1)Cc1coc2ccccc12	> 1000 nM
CN(C/C=C/c1cccc(Cl)c1)Cc1cccc2cc[nH]c12	> 1000 nM
CN(CCCc1ccc(-c2ccccc2)cc1)Cc1cccc2cc[nH]c12	> 1000 nM
CN(C/C=C/c1ccc(Cl)cc1Cl)Cc1cccc2cc[nH]c12	280 nM
CN(C/C=C/c1ccccc1F)Cc1cccc2cc[nH]c12	> 1000 nM
C/C=C/CN(C)Cc1cccc2cc[nH]c12	> 1000 nM
Cc1ccc(/C=C/CN(C)Cc2cccc3cc[nH]c23)cc1	199 nM
CN(C/C=C/c1ccc(C(F)(F)F)c(F)c1)Cc1cccc2cc[nH]c12	> 1000 nM

system: Trichophyton rubrum; experiment: In vitro antifungal activity against Trichophyton rubrum after 7 days by serial dilution method; assay type: functional; settings: 168 h

SMILES	MIC80
OC(Cn1cncn1)(Cn1cncn1)c1ccc(F)cc1F [FLUCONAZOLE]	1 µg/mL (≈ 3.27 µM)
C[C@@H](c1ncncc1F)[C@](O)(Cn1cncn1)c1ccc(F)cc1F [VORICONAZOLE]	0.0312 µg/mL (≈ 0.0895 µM)
CC(=O)N1CCN(c2ccc(OCC3COC(Cn4ccnc4)(c4ccc(Cl)cc4Cl)O3)cc2)CC1 (stereo not drawn) [KETOCONAZOLE]	0.5 µg/mL (≈ 0.941 µM)

system: Trichophyton mentagrophytes; experiment: In vitro antifungal activity against Trichophyton mentagrophytes after 7 days by serial dilution method; assay type: functional; settings: 168 h

SMILES	MIC80
OC(Cn1cncn1)(Cn1cncn1)c1ccc(F)cc1F [FLUCONAZOLE]	2 µg/mL (≈ 6.53 µM)
C[C@@H](c1ncncc1F)[C@](O)(Cn1cncn1)c1ccc(F)cc1F [VORICONAZOLE]	0.0312 µg/mL (≈ 0.0895 µM)
CC(=O)N1CCN(c2ccc(OCC3COC(Cn4ccnc4)(c4ccc(Cl)cc4Cl)O3)cc2)CC1 (stereo not drawn) [KETOCONAZOLE]	0.0625 µg/mL (≈ 0.118 µM)
